{"source": "a melting point compilation (Tetko et al.; mined from patent text by program, amines drawn as free bases though some values may be those of a salt)"}
{"units": {"melting point": "°C"}}
{"smiles": "O=C(Cc1ccccc1)Nc1cnc2ccccc2c1O", "melting point": "253 to 255"}
{"smiles": "CN(C)C(=O)c1c(S(N)(=O)=O)ccn1C", "melting point": "185 to 190"}
{"smiles": "ON=Cc1cn(C(c2ccccc2)(c2ccccc2)c2ccccc2)c(F)n1", "melting point": "147 to 149"}
{"smiles": "COc1ccc(CC(=O)c2cccs2)cc1", "melting point": "77 to 78.4"}
{"smiles": "N#Cc1c(Cl)c2cc(F)ccc2n(Cc2ccccc2)c1=O", "melting point": 228}
{"smiles": "COc1ccc2ncc3c(c2c1)C(OC(C)=O)CCC3", "note": "(centres undefined)", "melting point": "116 to 117"}
{"smiles": "COc1cc(C)c2nc3cccc(OC)c3nc2c1", "melting point": "201 to 202"}
{"smiles": "CC(=O)OC1O[C@H](CN=[N+]=[N-])[C@H](OC(C)=O)[C@H](OC(C)=O)[C@H]1OC(C)=O", "note": "(some centres undefined)", "melting point": "89.9 to 90.3"}
{"smiles": "CC(C)(C)N(NC(=O)c1ccccc1)C(=O)Cc1ccccc1", "melting point": "167 to 169"}
{"smiles": "Cc1cc(N)nc(CCCCNC(=O)c2c(O)cccc2O)c1", "melting point": "158 to 159"}
{"smiles": "CC(C)(C)c1ccc(O)c(C=NO)c1", "melting point": "116 to 118"}
{"smiles": "Nc1nc(Nc2ccccc2)sc1C(=O)c1cccs1", "melting point": "84 to 85"}
{"smiles": "COc1nc(SC)nc(Cl)c1C(=O)NCc1ncccn1", "melting point": "176 to 177"}
{"smiles": "CNc1nc(Br)cn2cc(C(N)=O)nc12", "melting point": 312}
{"smiles": "O=[N+]([O-])c1ccc2nc3c(nc2c1)OCC1CCCCN31", "note": "(centres undefined)", "melting point": "151 to 154"}
{"smiles": "O=C(O)COc1cccc2c1CCc1sc(S(=O)(=O)C(c3ccccc3F)c3ccccc3F)nc1-2", "melting point": "204 to 208"}
{"smiles": "COC(=O)c1ccc2c(c1)N(C(C)C)C(=O)C(C)(C)O2", "melting point": "75 to 77"}
{"smiles": "CCCCOP(=O)(CCCCC1(C(=O)NCCC)c2ccccc2-c2cccnc21)OCCCC", "note": "(centres undefined)", "melting point": "131 to 133"}
{"smiles": "CC1Cc2cc3c(cc2C(C=Cc2ccc(F)cc2)=NN1)OCO3", "note": "(centres undefined)", "melting point": "170 to 174"}
{"smiles": "O=C1CCOc2ccc(O)cc21", "melting point": "133 to 136"}
{"smiles": "O=C1CCCCCCCCCCCCC1", "melting point": 56}
{"smiles": "CCOC(=O)c1cc2ccccc2n1CC#N", "melting point": "65 to 67"}
{"smiles": "CCOC(=O)c1cnc2sc(-c3cccnc3)nn2c1=O", "melting point": "200 to 202"}
{"smiles": "CCN(CC)CCNC(=O)c1cccc2c(=O)c(C)c(-c3cccc(C)c3)oc12", "melting point": "79.5 to 86"}
{"smiles": "CCOCCOc1ccc(C(=O)CN(Cc2ccccc2)Cc2ccccc2)cc1C(N)=O", "melting point": "128 to 131"}
{"smiles": "CC1COc2cccc([N+](=O)[O-])c2N1", "note": "(centres undefined)", "melting point": 60}
{"smiles": "O=S1(=O)NCc2ccccc2N1", "melting point": "178 to 180"}
{"smiles": "O=C1Nc2ccccc2Sc2cscc21", "melting point": "215 to 216"}
{"smiles": "CCOC(=O)C(OC)C(=O)Nc1ccc(Br)cc1C", "note": "(centres undefined)", "melting point": "93 to 95"}
{"smiles": "Cc1cccc(C)c1N(CC(=O)NCCC(=O)O)C(=O)c1ccc(Cl)cc1", "melting point": "154 to 156"}
{"smiles": "CC1(C)Oc2ccc(S(=O)(=O)C(F)(F)F)cc2C(N2Cc3cccc([N+](=O)[O-])c3C2=O)C1O", "note": "(centres undefined)", "melting point": "283 to 284"}
{"smiles": "O=[N+]([O-])c1cnc(N2CCc3ccccc3CC2)c([N+](=O)[O-])c1", "melting point": "137 to 140"}
{"smiles": "COc1ccc(-n2nc(Sc3cc(C)ccc3C)c(C)c(C#N)c2=O)cc1", "melting point": "140 to 142"}
{"smiles": "Fc1ccc(C(OCCCN2CCN(C(c3ccccc3)c3ccccc3)CC2)c2ccc(F)cc2)cc1", "melting point": "78 to 79"}
{"smiles": "CCOC(=O)Nc1nc(-c2ccccc2)c(-c2nc3ccccc3c(=O)n2-c2cccc(Cl)c2)s1", "melting point": "235 to 236"}
{"smiles": "CC1=NC(Cc2ncc(Br)cn2)C(Br)=CN1", "note": "(centres undefined)", "melting point": 176}
{"smiles": "O=C(CCCl)Nc1cccc(NC(=O)Nc2ccc(N(CCCl)CCCl)cc2)c1", "melting point": "232 to 233"}
{"smiles": "OC1CSC(Oc2cc(-c3ccncc3)cnc2F)C(O)C1O", "note": "(centres undefined)", "melting point": "98 to 102"}
{"smiles": "CC(=O)OC1COC(NNC(=O)C(F)(F)F)C(OC(C)=O)C1OC(C)=O", "note": "(centres undefined)", "melting point": 106}
{"smiles": "CC(=O)c1ccc(Oc2ccc(O)cc2)cc1", "melting point": "159 to 161"}
{"smiles": "N#CSc1nc(Nc2ccc(Cl)cc2)ncc1[N+](=O)[O-]", "melting point": "240 to 242"}
{"smiles": "N#CCc1cc(O)cc2cc(-c3ccc(O)cc3)oc12", "melting point": "128 to 130"}
{"smiles": "O=C(Nc1ccc(CCl)cc1)C1=Cc2cc(-c3ccccc3)ccc2CC1", "melting point": "176 to 177"}
{"smiles": "CCCN1Cc2cncn2C(c2ccc(C#N)cc2)C1=O", "note": "(centres undefined)", "melting point": "97 to 98"}
{"smiles": "N#Cc1cc2c(cc1F)S(=O)(=O)N=CN2C1CC1", "melting point": "205 to 207"}
{"smiles": "COc1ccc2[nH]cc(S(=O)(=O)c3ccccc3)c2n1", "melting point": "223 to 225"}
{"smiles": "COc1ccc2c(c1)c(CC(=O)O)c(C)n2-c1ncnc2cc(Cl)ccc12", "melting point": "202 to 204"}
{"smiles": "c1ccc(C(OC(c2ccccc2)(c2ccccc2)c2ccccc2)(c2ccccc2)c2ccccc2)cc1", "melting point": "89 to 91"}
{"smiles": "CCOc1ccc(C(=O)NCc2ccc3c(c2)C(=O)N(C2(C)CCC(=O)NC2=O)C3=O)cn1", "note": "(centres undefined)", "melting point": "174 to 176"}
{"smiles": "CC(=O)N1CCc2c(sc(C)c2CCN2CCC(c3noc4cc(F)ccc34)CC2)C1", "melting point": "70 to 75"}
{"smiles": "CCCCCCCCN(CCCCCCCC)C(=O)CS(=O)(=O)Nc1c(C(C)C)cccc1C(C)C", "melting point": "107 to 109"}
{"smiles": "N#Cc1cccc(/C=C/c2cc(Cl)cnc2N)c1", "melting point": "> 275"}
{"smiles": "CCCn1cc(C2(c3cccc(Br)c3)N=C(N)N(C)C2=O)cc1C(=O)CC", "note": "(centres undefined)", "melting point": 260}
{"smiles": "CCC(C)C(NC(=O)OC)C(=O)NC(Cc1ccccc1)C(O)CN(Cc1ccc(-c2cncs2)cc1)NC(=O)C(NC(=O)OC)C(C)C", "note": "(centres undefined)", "melting point": "202 to 204"}
{"smiles": "CC1(C)CCC(C)(C)C2=C1C=C(CC#Cc1ccc(C(=O)O)cc1)CC2(O)OCc1ccc(C(F)(F)F)cc1", "note": "(centres undefined)", "melting point": 222}
{"smiles": "C=CCn1c(=O)ccc2cc(F)c(-n3c(=O)cc(C(F)(F)F)n(C)c3=O)cc21", "melting point": "178 to 179"}
{"smiles": "CC(O)c1cc(S(N)(=O)=O)sc1S(=O)(=O)c1ccc(O)cc1", "note": "(centres undefined)", "melting point": "173 to 175"}
{"smiles": "COc1ccc(OCC(=O)N[C@@H](Cc2ccccc2)C(=O)CSCc2ccsc2)cc1", "melting point": "80 to 81"}
{"smiles": "Cc1cc(CCCCNc2nc(CO)nn2C)sc1C=O", "melting point": "118 to 121"}
{"smiles": "Cc1cccc(C)c1-c1cc(Cl)cc2c1OC(CN1CCCCC1)C2", "note": "(centres undefined)", "melting point": "> 235"}
{"smiles": "O=c1cc(O)c2ccc(OCC(O)COc3ccccc3)cc2o1", "note": "(centres undefined)", "melting point": "145 to 175"}
{"smiles": "COC(=S)c1ccc(-c2ccccc2)c(S(C)(=O)=O)c1", "melting point": "155 to 156"}
{"smiles": "CCCCCCCCN1C(=O)c2c(Br)sc(Br)c2C1=O", "melting point": 104}
{"smiles": "CC(=O)SC(C)CC(=O)N1CCC[C@H]1C(=O)O", "note": "(some centres undefined)", "melting point": "175 to 176"}
{"smiles": "COC(=O)CCC(=O)c1ccc(Br)cc1", "melting point": "49 to 51"}
{"smiles": "O=c1[nH]c2cc(Cl)ccc2n1CCCO", "melting point": 149}
{"smiles": "CCC(=O)NCCc1cc(-c2cccc(C(=O)OC)c2)cc2ccc(OC)cc12", "melting point": "113 to 115"}
{"smiles": "COc1cc(-c2c(C)c3cc(O)ccc3n2Cc2ccc(OCCN3CCCCC3)cc2)ccc1O", "melting point": "161 to 163"}
{"smiles": "CCCCN1CCC(NC(=O)c2cnc3c(OC)cccc3c2Nc2ccc(C(=O)NC3CCN(Cc4ccccc4)CC3)cc2)CC1", "melting point": "215 to 220"}
{"smiles": "OCc1cccnc1Nc1ccccc1", "melting point": "180 to 182"}
{"smiles": "N#CCCSc1ccc(Cl)cc1", "melting point": "53 to 54"}
{"smiles": "CS(=O)(=O)Cc1cc(Br)ccc1C(=O)c1cnoc1C1CC1", "melting point": 154}
{"smiles": "CNN1CSC(=Cc2cc(C(C)(C)C)c(O)c(C(C)(C)C)c2)C1=O", "melting point": "151 to 154"}
{"smiles": "CCCC(=O)c1cnc2c(C)cccc2c1Nc1ccccc1C", "melting point": "110 to 112"}
